Assay results reported in US11034658B2, “Pyridinyl pyrazoles as modulators of RORγT” (Janssen Pharmaceutica NV, priority 2018, dated 2021).

Tests used:
[1] = molecular target: full-length human RORγt (GAL4-DBD-RORγt fusion) in HEK293T cells (Homo sapiens (Human), UniProt P51449); experiment: RORγt (full-length human) reporter assay, conditions A or B; type: cell-based; settings: for IC50: HEK293T cells, read-out: RORγt (FL) Reporter Assay A or B, IC50; for inhibition at 3 µM / inhibition at 1 µM: HEK-293T, read-out: RORγt (FL) Reporter Assay A or B, % inhibition; for inhibition at 3 µM: 3 μM compound concentration (footnote *); for inhibition at 1 µM: 1 μM compound concentration (footnote ***)
full-length human RORγt (GAL4-DBD-RORγt fusion) in HEK293T cells, sequence (P51449 other isoform, or with tags, fused parts or gaps): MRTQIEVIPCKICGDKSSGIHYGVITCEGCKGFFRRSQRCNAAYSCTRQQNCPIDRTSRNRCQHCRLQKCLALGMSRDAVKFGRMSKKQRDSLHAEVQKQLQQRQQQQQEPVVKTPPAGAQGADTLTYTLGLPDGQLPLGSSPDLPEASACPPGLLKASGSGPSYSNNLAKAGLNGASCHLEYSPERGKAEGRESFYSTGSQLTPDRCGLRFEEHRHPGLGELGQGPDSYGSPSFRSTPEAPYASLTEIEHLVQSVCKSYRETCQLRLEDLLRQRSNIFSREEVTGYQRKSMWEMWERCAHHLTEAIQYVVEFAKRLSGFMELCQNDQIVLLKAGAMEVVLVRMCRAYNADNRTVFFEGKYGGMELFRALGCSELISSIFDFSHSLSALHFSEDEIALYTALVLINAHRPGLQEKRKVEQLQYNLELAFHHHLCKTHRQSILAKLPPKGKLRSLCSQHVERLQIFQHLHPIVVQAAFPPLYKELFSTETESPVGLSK
Description: RORγt (Full-Length Human) Reporter Assay:
(§1) HEK293T cells were plated at 35,000 per well in 96-well plate in medium of DMEM with 10% FBS. […] After overnight (16 to 20 hours) incubation, media were removed and cells were lysed with 50 μL Glo Lysis Buffer (Promega) for 10-15 minutes followed by 10 minute incubation with 50 μL Dual Glo reagent (Promega) at room temperature. Firefly luciferase luminescence was measured using a BMG Pherastar plate reader. To each well, 50 μL Stop and Glo reagent was added and incubated for 10 minutes at room temperature. Renilla luminescence was measured using a BMG Pherastar plate reader. To calculate the effect of compounds on RORγt activity, firefly values were normalized against values of DMSO only and values of reference compound at saturating concentration, then further normalized against Renilla signals. IC50s were generated by plotting final Renilla normalized data against compound concentration and percent inhibition was calculated against DMSO control.
as §1, with “at 8750 cells” for “at 35,000”, “in 384-well” for “in 96-well”, “with 20” for “with 50”, “well, 20” for “well, 50”

[2] = molecular target: human RORγt ligand binding domain (RORγt LBD) (Homo sapiens (Human), UniProt P51449); experiment: RORγt ThermoFluor assay
human RORγt ligand binding domain (RORγt LBD), sequence (P51449 other isoform, or with tags, fused parts or gaps): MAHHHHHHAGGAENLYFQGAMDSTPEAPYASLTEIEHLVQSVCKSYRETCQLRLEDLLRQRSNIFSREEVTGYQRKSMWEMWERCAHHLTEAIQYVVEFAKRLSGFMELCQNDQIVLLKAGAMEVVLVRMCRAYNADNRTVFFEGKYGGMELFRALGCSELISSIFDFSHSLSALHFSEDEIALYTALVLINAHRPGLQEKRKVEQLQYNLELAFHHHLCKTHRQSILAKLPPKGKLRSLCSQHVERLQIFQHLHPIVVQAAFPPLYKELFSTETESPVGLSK
Excerpt: ThermoFluor® is a fluorescence based assay that estimates ligand binding affinities by measuring the effect of a ligand on protein thermal stability (Pantoliano, M. W., Petrella, E. C., Kwasnoski, J. D., Lobanov, V. S., Myslik, J., Graf, E., Carver, T., Asel, E., Springer, B. A., Lane, P., and Salemme, F. R. (2001) High-density miniaturized thermal shift assays as a general strategy for drug discovery. J Biomol Screen 6, 429-40, and Matulis, D., Kranz, J. K., Salemme, F. R., and Todd, M. J. (2005) Thermodynamic stability of carbonic anhydrase: measurements of binding affinity and stoichiometry using ThermoFluor. Biochemistry 44, 5258-66). This approach is applicable to a wide variety of systems, and rigorous in theoretical interpretation through quantitation of equilibrium binding constants (KD).
The shift in the melting point described as a ΔTm is proportional to the concentration and affinity of the ligand. The compound potency may be compared as a rank order of either values at a single compound concentration or in terms of KD values, estimated from concentration response curves.
RORγt ThermoFluor® Assay Construct
For the RORγt construct used in the ThermoFluor® assay, numbering for the nucleotide sequences was based on the reference sequence for human RORγt, transcript variant 2, NCBI Accession: NM 001001523.1 (SEQ ID NO:1). Nucleotides 850-1635 (SEQ ID NO:2) coding for the wild type human RORγt ligand binding domain (RORγt LBD) were cloned into the pHIS1 vector, a modified pET E. coli expression vector (Accelagen, San Diego), containing an in-frame N-terminal His-tag and a TurboTEV protease cleavage site (ENLYFQG, SEQ ID NO:3) upstream of the cloned insert sequence. The amino acid sequence for the RORγt construct used in the Thermofluor® assay is shown as SEQ ID NO:4.
ThermoFluor® experiments were carried out using instruments owned by Janssen Research and Development, L.L.C. through its acquisition of 3-Dimensional Pharmaceuticals, Inc. 1,8-ANS (Invitrogen) was used as a fluorescent dye. Protein and compound solutions are dispensed into black 384-well polypropylene PCR microplates (Abgene) and overlayed with silicone oil (1 μL, Fluka, type DC 200) to prevent evaporation.
Bar-coded assay plates are robotically loaded onto a thermostatically controlled PCR-type thermal block and then heated at a typical ramp-rate of 1° C./min for all experiments. Fluorescence was measured by continuous illumination with UV light (Hamamatsu LC6) supplied via fiber optic and filtered through a band-pass filter (380-400 nm; >6 OD cutoff). Fluorescence emission of the entire 384-well plate was detected by measuring light intensity using a CCD camera (Sensys, Roper Scientific) filtered to detect 500±25 nm, resulting in simultaneous and independent readings of all 384 wells. Images were collected at each temperature, and the sum of the pixel intensity in a given area of the assay plate was recorded versus temperature. Reference wells contained RORγt without compounds, and the assay conditions were as follows:
Project compounds were arranged in a pre-dosed mother plate (Greiner Bio-one) wherein compounds are serially diluted in 100% DMSO by 1:2 from a high concentration of 10 mM over 12 columns within a series (column 12 is a reference well containing DMSO, no compound). The compounds were robotically dispensed directly into assay plates (1×=46 nL) using a Hummingbird capillary liquid handling instrument (Digilab). Following compound dispense, protein and dye in buffer was added to achieve the final assay volume of 3 μL, followed by 1 μL of silicone oil.
The binding affinity was estimated as described previously (Matulis, D., Kranz, J. K., Salemme, F. R., and Todd, M. J. (2005) Thermodynamic stability of carbonic anhydrase: measurements of binding affinity and stoichiometry using ThermoFluor®. Biochemistry 44, 5258-66) using the following thermodynamic parameters of protein unfolding:
Reference RORγt Tm: 47.8° C.

Structure (SMILES) | IC50 [1] [nM] | inhibition at 3 µM [1] [%] | Kd [2] [nM] | inhibition at 1 µM [1] [%]
CCn1nc(C(=O)NC[C@H]2CC[C@H](S(N)(=O)=O)CC2)c(Cl)c1-c1cnc(CC(C)(C)C(F)(F)F)cc1OC(F)F [Example 11, 4-chloro-5-(4-(difluoromethoxy)-6-(3,3,3-trifluoro-2,2-dimethylpropyl)pyridin-3-yl)-1-ethyl-N-(((1r,4r)-4-sulfamoylcyclohexyl)methyl)-1H-pyrazole-3-carboxamide] | 23 | 108 | 1.4 | –
CCn1nc(C(=O)NC[C@H]2CC[C@H](S(N)(=O)=O)CC2)c(C)c1-c1cnc(CC(C)(C)C(F)(F)F)cc1OC(F)F [Example 12, 5-(4-(Difluoromethoxy)-6-(3,3,3-trifluoro-2,2-dimethylpropyl)pyridin-3-yl)-1-ethyl-4-methyl-N-(((1r,4r)-4-sulfamoylcyclohexyl)methyl)-1H-pyrazole-3-carboxamide] | 29 | 110 | 4.3 | –
CCn1nc(C(=O)NC[C@H]2CC[C@H](S(C)(=O)=O)CC2)c(Cl)c1-c1cnc(CC(C(F)(F)F)C(F)(F)F)cc1OC(F)F [Example 21, 4-Chloro-5-(4-(difluoromethoxy)-6-(3,3,3-trifluoro-2-(trifluoromethyl)propyl)pyridin-3-yl)-1-ethyl-N-(((1r,4r)-4-(methylsulfonyl)cyclohexyl)methyl)-1H-pyrazole-3-carboxamide] | 20 | – | 1.2 | 120
CCn1nc(C(=O)NC[C@]2(O)CC[C@@H](S(C)(=O)=O)CC2)c(Cl)c1-c1cnc(CC(C(F)(F)F)C(F)(F)F)cc1OC(F)F [Example 22, 4-Chloro-5-(4-(difluoromethoxy)-6-(3,3,3-trifluoro-2-(trifluoromethyl)propyl)pyridin-3-yl)-1-ethyl-N-(((1s,4s)-1-hydroxy-4-(methylsulfonyl)cyclohexyl)methyl)-1H-pyrazole-3-carboxamide] | 46 | – | 6.4 | 115
CCn1nc(C(=O)NC[C@H]2CC[C@H](S(C)(=O)=O)CC2)c(C)c1-c1cnc(CC(C(F)(F)F)C(F)(F)F)cc1OC(F)F [Example 23, 5-(4-(Difluoromethoxy)-6-(3,3,3-trifluoro-2-(trifluoromethyl)propyl)pyridin-3-yl)-1-ethyl-4-methyl-N-(((1r,4r)-4-(methylsulfonyl)cyclohexyl)methyl)-1H-pyrazole-3-carboxamide] | 15 | 100 | 2.5 | –
CCn1nc(C(=O)NC[C@]2(O)CC[C@@H](S(C)(=O)=O)CC2)c(C)c1-c1cnc(CC(C(F)(F)F)C(F)(F)F)cc1OC(F)F [Example 24, 5-(4-(Difluoromethoxy)-6-(3,3,3-trifluoro-2-(trifluoromethyl)propyl)pyridin-3-yl)-1-ethyl-N-(((1s,4s)-1-hydroxy-4-(methylsulfonyl)cyclohexyl)methyl)-4-methyl-1H-pyrazole-3-carboxamide] | 63 | 113 | 8.9 | –

Now from value to molecule:

IC50 [1] [nM] | inhibition at 3 µM [1] [%] | Kd [2] [nM] | inhibition at 1 µM [1] [%] | Structure (SMILES)
340 | 94 | 15 | – | CCn1nc(C(=O)NC[C@H]2CC[C@H](S(C)(=O)=O)CC2)c(Cl)c1-c1cnc(CC(C)(C)C(F)(F)F)cc1C(C)C [Example 25]
14 | 88 | 17 | – | CCn1nc(C(=O)NC[C@H]2CC[C@H](S(C)(=O)=O)CC2)c(Cl)c1-c1cnc(CC(C)(C)C(F)(F)F)cc1C(F)F [Example 26, 4-Chloro-5-(4-(difluoromethyl)-6-(3,3,3-trifluoro-2,2-dimethylpropyl)pyridin-3-yl)-1-ethyl-N-(((1r,4r)-4-(methylsulfonyl)cyclohexyl)methyl)-1H-pyrazole-3-carboxamide]
130 | 20 | 47 | – | CCn1nc(C(=O)NC[C@]2(O)CC[C@@H](S(C)(=O)=O)CC2)c(Cl)c1-c1cnc(CC(C)(C)C(F)(F)F)cc1C(F)F [Example 27, 4-Chloro-5-(4-(difluoromethyl)-6-(3,3,3-trifluoro-2,2-dimethylpropyl)pyridin-3-yl)-1-ethyl-N-(((1s,4s)-1-hydroxy-4-(methylsulfonyl)cyclohexyl)methyl)-1H-pyrazole-3-carboxamide]
2 | 76 | 97 | – | CCn1nc(C(=O)NC[C@]2(O)CC[C@@H](S(C)(=O)=O)CC2)c(C)c1-c1cnc(CC(C)(C)C(F)(F)F)cc1C(F)F [Example 28, 5-(4-(Difluoromethyl)-6-(3,3,3-trifluoro-2,2-dimethylpropyl)pyridin-3-yl)-1-ethyl-N-(((1s,4s)-1-hydroxy-4-(methylsulfonyl)cyclohexyl)methyl)-4-methyl-1H-pyrazole-3-carboxamide]
100 | 98 | 10 | – | Cn1nc(C(=O)NC[C@H]2CC[C@H](S(C)(=O)=O)CC2)c(Cl)c1-c1cnc(CC(C)(C)C(F)(F)F)cc1OC(F)F [Example 30, 4-Chloro-5-(4-(difluoromethoxy)-6-(3,3,3-trifluoro-2,2-dimethylpropyl)pyridin-3-yl)-1-methyl-N-(((1r,4r)-4-(methylsulfonyl)cyclohexyl)methyl)-1H-pyrazole-3-carboxamide]
160 | – | 26 | 100 | Cc1c(C(=O)NC[C@H]2CC[C@H](S(C)(=O)=O)CC2)nn(C)c1-c1cnc(CC(C)(C)C(F)(F)F)cc1OC(F)F [Example 31]
54 | 129 | 18 | – | CCn1nc(C(=O)NC[C@H]2CC[C@H](S(C)(=O)=O)CC2)c(Cl)c1-c1cnc(CCCC(F)(F)F)cc1OC(F)F [Example 32, 4-Chloro-5-(4-(difluoromethoxy)-6-(4,4,4-trifluorobutyl)pyridin-3-yl)-1-ethyl-N-(((1r,4r)-4-(methylsulfonyl)cyclohexyl)methyl)-1H-pyrazole-3-carboxamide]
